Results: publication PMC8036666, “Biological and Physico-Chemical Characteristics of Arginine-Rich Peptide Gemini Surfactants with Lysine and Cystine Spacers” (International Journal of Molecular Sciences, 2021)
In brackets after ≈: the same amount, converted by molar mass. Like-named read-outs stand apart in the source and are kept apart here. Where a SMILES comes first, the peptide text is derived from it. Bridges are numbered along the chain shown (N, C = ends). Roman numbers before positions name the chains, in order. The star is where a group is joined. Lauroyl = CCCCCCCCCCCC(=O)*; Octanoyl = CCCCCCCC(=O)*

Tests used:
[1] = system: human red blood cells (hRBCs); assay: Hemolysis assay; format: cell-based; conditions: 1 h
Protocol: The hemolysis assay was performed by using the method reported previously. Fresh human red blood cells (hRBCs) with anticoagulant (EDTA) were rinsed three times with a PBS by centrifugation at 800× g for 10 min and diluted with PBS. The compounds were serially diluted on a 96-well microtiter polystyrene plate, and hRBCs were added up to a final volume of 100 μL. The compound concentration ranged between 0.5 and 256 μg/mL and the final hRBCs concentration was 4% (v/v). Controls for zero (blank) and 100% hemolysis consisted of hRBCs suspended in PBS and 1% of Triton-X 100 (Carl Roth GmbH, Karlsruhe, Germany), respectively. The plate was incubated for 1 h at 37 °C and then centrifuged (800× g, 10 min, 4 °C). Subsequently, the supernatant was […] to new microtiter plates, and the absorbance at 540 nm was measured (Multiskan GO Microplate Spectrophotometer, Thermo Fisher Scientific, Vantaa, Finland). All experiments were conducted in triplicate. HC50 was calculated using an ic50.tk tool. The protocol of the study was approved by the local Bioethics Committee at the Medical University of Gdańsk (NKBBN/262/2019, approval date: 10 June 2019).

C. glabrata ATCC 15126 [2] = system: C. glabrata ATCC 15126
Protocol: (§1) The Acinetobacter baumannii ATCC BAA-1605, Enterococcus faecium ATCC 700221, Escherichia coli ML-35 ATCC 43827, Klebsiella aerogenes ATCC 13048, Klebsiella pneumoniae ATCC 700603, Pseudomonas aeruginosa ATCC 9027, Staphylococcus aureus ATCC 25923, Staphylococcus aureus ATCC 33591, Candida albicans ATCC 10231, Candida glabrata ATCC 15126, strains were acquired from the American Type Culture Collection (ATCC). All the strains were stored at −80 °C in Roti-Store cryo vials and before the tests were transferred into fresh Mueller–Hinton broth (MHB, Biocorp, Warsaw, Poland) for bacteria or RPMI-1640 (Sigma-Aldrich, Steinheim, Germany) for fungi and incubated for 24 h at 37 °C. Then, the cultures were seeded on the Mueller–Hinton agar (BioMaxima, Lublin, Poland) or Sabouraud dextrose agar (SDA, BioMaxima, Lublin, Poland) plates, respectively, and incubated as just mentioned. These agar cultures were used for further microbiological assays. Cell densities for all assays were adjusted spectrophotometrically (Multiskan GO Microplate Spectrophotometer, Thermo Fisher Scientific, Vantaa, Finland) at 600 and 530 nm for bacteria and fungi, respectively.
(§2) The MICs were determined by the broth microdilution method according to the Clinical and Laboratory Standard Institute guidelines. For this purpose, initial inoculums of bacteria (5 × 10^5 CFU/mL) in MHB and yeasts (2 × 10^3 CFU/mL) in RPMI-1640 with 2% D-glucose were exposed to the ranging concentration of lipopeptides (0.5–256 μg/mL) and incubated at 37 °C for 18 h and 24 h, respectively. The experiments were conducted on 96-well microtiter polystyrene plates (Kartell, Noviglio, Italy). The growth was assessed visually after incubation, and the MIC was assumed as the lowest peptide concentration at which a noticeable growth of microorganisms was inhibited. All experiments were conducted in triplicate.

C. albicans ATCC 10231 = system: C. albicans ATCC 10231
Protocol: as §1, §2

[3] = system: Staphylococcus aureus ATCC 33591
Protocol: as §1, with “[…],” for “Poland) for bacteria or RPMI-1640 (Sigma-Aldrich,”, “Cell densities for all assays were adjusted spectrophotometrically (Multiskan GO Microplate Spectrophotometer, Thermo Fisher Scientific, Vantaa, Finland) at 600 and 530 nm for bacteria and fungi, respectively.” left out
(§3) The MICs were determined by the broth microdilution method according to the Clinical and Laboratory Standard Institute guidelines. […] The experiments were conducted on 96-well microtiter polystyrene plates (Kartell, Noviglio, Italy). The growth was assessed visually after incubation, and the MIC was assumed as the lowest peptide concentration at which a noticeable growth of microorganisms was inhibited. All experiments were conducted in triplicate.

P. aeruginosa ATCC 9027 = format: cell-based, Pseudomonas aeruginosa
Protocol: (§4) Minimal inhibitory concentrations of lipopeptides were determined in the presence of human serum to evaluate the effect of enzymatic degradation and protein binding of lipopeptides on antimicrobial activity. Serum concentrations were 1% and 10% (v/v). S. aureus (ATCC 33591), P. aeruginosa (ATCC 9027), and C. glabrata (ATCC 15126) were selected to this study.
as §2
(§5) The MICs were determined in the presence of normal human serum (NHS; Sigma-Aldrich, Human Serum, Normal) in concentrations of 1 and 10% (v/v). NHS was stored frozen at −20 °C and thawed just before use. Microorganisms were cultivated as described in 3.4.1. Serial dilutions of compounds, inoculum density, medium, and incubation conditions were prepared as described in Section 3.4.2. Stock solutions of test compounds were prepared in appropriate culture medium.

[4] = system: Klebsiella pneumoniae ATCC 700603
Protocol: as §1, §3

[5] = system: Pseudomonas aeruginosa ATCC 9027
Protocol: as §1, §3

[6] = system: Acinetobacter baumannii ATCC BAA 1605
Protocol: as §1, §3

[7] = system: Enterococcus faecium ATCC 700221
Protocol: as §1, §3

[8] = system: Staphylococcus aureus ATCC 25923
Protocol: as §1, §3

[9] = system: Klebsiella aerogenes ATCC 13048
Protocol: as §1, §3

S. aureus ATCC 33591 = format: cell-based, Staphylococcus aureus
Protocol: as §4, §2, §5

C. glabrata ATCC 15126 [10] = format: cell-based, Candida glabrata
Protocol: as §4, §2, §5

Row | Structure (SMILES) | HC50 ([1]; red cells of human) [µg/mL] | MIC C. glabrata ATCC 15126 (C. glabrata ATCC 15126 [2]; ATCC 15126, 24 h) [mg/L] | MIC C. albicans ATCC 10231 (C. albicans ATCC 10231; ATCC 10231, 24 h) [mg/L] | MIC Staphylococcus aureus ATCC 33591 ([3]; ATCC 33591, 24 h) [mg/L] | MIC P. aeruginosa ATCC 9027 (P. aeruginosa ATCC 9027; human serum 10% (v/v)) [mg/L] | MIC Klebsiella pneumoniae ATCC 700603 ([4]; ATCC 700603, 24 h) | MIC Pseudomonas aeruginosa ATCC 9027 ([5]; ATCC 9027, 24 h) [mg/L] | MIC Acinetobacter baumannii ATCC BAA 1605 ([6]; ATCC BAA 1605, 24 h) [mg/L] | MIC Enterococcus faecium ATCC 700221 ([7]; ATCC 700221, 24 h) [mg/L] | MIC Staphylococcus aureus ATCC 25923 ([8]; ATCC 25923, 24 h) [mg/L] | MIC Klebsiella aerogenes ATCC 13048 ([9]; ATCC 13048, 24 h) [mg/L] | MIC S. aureus ATCC 33591 (S. aureus ATCC 33591; human serum 10% (v/v)) [mg/L] | MIC C. glabrata ATCC 15126 (C. glabrata ATCC 15126 [10]; human serum 10% (v/v)) [mg/L] | other results
1 | CCCCCCCCCCCC(=O)N[C@@H](CCCNC(=N)N)C(=O)N[C@@H](CCCNC(=N)N)C(=O)N[C@@H](CSSC[C@H](NC(=O)[C@H](CCCNC(=N)N)NC(=O)[C@H](CCCNC(=N)N)NC(=O)CCCCCCCCCCC)C(N)=O)C(N)=O [Compound C3] (I: Lauroyl-Arg-Arg-Cys-NH2 / II: Lauroyl-Arg-Arg-Cys-NH2; disulfide I:3-II:3) | 36.24 ± 2.35 | 2 (≈ 1.63 µM) | 1 (≈ 0.815 µM) | 4 (≈ 3.26 µM) | 256 (≈ 209 µM) | >256 (−/−) µg/mL | 8 (≈ 6.52 µM) | 64 (≈ 52.1 µM) | 2 (≈ 1.63 µM) | 4 (≈ 3.26 µM) | 32 (≈ 26.1 µM) | 32 (≈ 26.1 µM) | > 256 | –
2 | CCCCCCCC(=O)N[C@@H](Cc1ccccc1)C(=O)N[C@@H](CCCNC(=N)N)C(=O)N[C@@H](CCCNC(=N)N)C(=O)N[C@@H](CSSC[C@H](NC(=O)[C@H](CCCNC(=N)N)NC(=O)[C@H](CCCNC(=N)N)NC(=O)[C@H](Cc1ccccc1)NC(=O)CCCCCCC)C(N)=O)C(N)=O [Compound C5] (I: Octanoyl-FRRC-NH2 / II: Octanoyl-FRRC-NH2; disulfide I:4-II:4) | – | – | – | – | >256 | – | – | – | – | – | – | 256 (≈ 182 µM) | >256 | HC50 ([1]; hRBCs 4% (v/v), 37 °C): 117.06 ± 4.60 µg/mL; MIC C. glabrata ATCC 15126 (C. glabrata ATCC 15126 [2]; planktonic culture): 8 mg/L (≈ 5.67 µM); MIC C. albicans ATCC 10231 (C. albicans ATCC 10231; planktonic culture): 8 mg/L (≈ 5.67 µM); MIC Staphylococcus aureus ATCC 33591 ([3]; planktonic culture): 2 mg/L (≈ 1.42 µM); MIC P. aeruginosa ATCC 9027 (P. aeruginosa ATCC 9027; human serum 0% (v/v)): 8 mg/L (≈ 5.67 µM); MIC P. aeruginosa ATCC 9027 (P. aeruginosa ATCC 9027; human serum 1% (v/v)): 128 mg/L (≈ 90.8 µM); MIC Klebsiella pneumoniae ATCC 700603 ([4]; planktonic culture): 32 µg/mL (≈ 22.7 µM); MIC Pseudomonas aeruginosa ATCC 9027 ([5]; planktonic culture): 8 mg/L (≈ 5.67 µM); MIC Acinetobacter baumannii ATCC BAA 1605 ([6]; planktonic culture): 32 mg/L (≈ 22.7 µM); MIC Enterococcus faecium ATCC 700221 ([7]; planktonic culture): 2 mg/L (≈ 1.42 µM); MIC Staphylococcus aureus ATCC 25923 ([8]; planktonic culture): 2 mg/L (≈ 1.42 µM); MIC Klebsiella aerogenes ATCC 13048 ([9]; planktonic culture): 128 mg/L (≈ 90.8 µM); MIC S. aureus ATCC 33591 (S. aureus ATCC 33591; human serum 0% (v/v)): 2 mg/L (≈ 1.42 µM); MIC S. aureus ATCC 33591 (S. aureus ATCC 33591; human serum 1% (v/v)): 64 mg/L (≈ 45.4 µM); MIC C. glabrata ATCC 15126 (C. glabrata ATCC 15126 [10]; human serum 0% (v/v)): 8 mg/L (≈ 5.67 µM); MIC C. glabrata ATCC 15126 (C. glabrata ATCC 15126 [10]; human serum 1% (v/v)): 128 mg/L (≈ 90.8 µM)
3 | CCCCCCC(CCCC)C(=O)N[C@@H](CCCNC(=N)N)C(=O)N[C@@H](CCCNC(=N)N)C(=O)N[C@@H](CSSC[C@H](NC(=O)[C@H](CCCNC(=N)N)NC(=O)[C@H](CCCNC(=N)N)NC(=O)C(CCCC)CCCCCC)C(N)=O)C(N)=O (stereo partly drawn) [Compound C7] | >256 | 16 (≈ 13 µM) | 16 (≈ 13 µM) | 2 (≈ 1.63 µM) | 256 (≈ 209 µM) | 32 µg/mL (≈ 26.1 µM) | 4 (≈ 3.26 µM) | 32 (≈ 26.1 µM) | 2 (≈ 1.63 µM) | 2 (≈ 1.63 µM) | 16 (≈ 13 µM) | 64 (≈ 52.1 µM) | 256 (≈ 209 µM) | –
